Laboratory results from patent US20020048585A1, “Methods of modulating wound healing and angiogenesis” (priority 2000, published 2002).

System: primary skin fibroblasts
Assay: In vitro wound closure (migration) test in confluent fibroblast cultures
Assay type: cell-based, mouse
Settings: medium (DMEM with 2% FBS) supplemented with 25 ng/ml; syndecan-4+/+, +/- and -/- fibroblasts
Experimental: Primary skin fibroblasts were isolated from newborn syndecan-4+/+, syndecan-4+/−, and syndecan-4−/− mice from the same litter. Mice were sacrificed, and their skins were removed, flattened, and floated on a 0.25% trypsin solution (Life Technologies Inc., Gaithersburg, Md., USA) at 4° C. overnight. The dermis was separated from the epidermis and dissociated by stirring at room temperature for 30 minutes in HBSS containing collagenase (500 μg/ml) (Life Technologies Inc.). The cell suspension of each skin was passed through a cell strainer (Becton Dickinson and Co., Franklin Lakes, N.J., USA) and transferred to a 10-cm cell culture dish and cultured as described previously (Saoncella et al.1999. Proc. Natl. Acad. Sci. USA. 96:2805-2810). Dermal fibroblasts were maintained at subconfluent densities and used between passages three and six.
Primary fibroblast cultures were established for 2 days in DMEM with 10% FBS followed by an overnight culture in DMEM with 2% FBS. In vitro wound closure tests were performed by creating clear lines in confluent cultures with a sterile yellow plastic pipette tip. After two washes with medium, the monolayers were covered with fresh medium and the migration of the cells into the cleared spaces was monitored over time. The control medium used during wound closure was DMEM with 2% FBS. […]

Row | Substance | rate of wound closure
1 | EGF: growth factor (Becton Dickinson) added to culture medium (NSDSECPLSHDGYCLHDGVCMYIEALDKYACNCVVGYIGERCQYRDLKWWELR; Epidermal growth factor; UniProt P01133 971-1023, looked up) | did not alter the rate of wound closure
2 | FGF-2: growth factor, ligand of the FGF-2 receptor (R&D Systems), added to culture medium | did not alter the rate of wound closure
